Read-outs that look alike come from different tables or passages of the source.

The test system of series [1] is mouse models of narcolepsy type 1 / WT mice. As to conditions: cited from earlier work.
Series [2] deals with individuals with NT1. To be noted: initial clinical studies; cited from earlier work.

For the molecule `COC(=O)N1CCC[C@H](NS(C)(=O)=O)[C@@H]1CO[C@H]1CC[C@@H](c2ccccc2)CC1` [TAK-925], the wakefulness entry in series [1] (subcutaneous administration, OX2R-knockout mice) is on record as “not”; in series [1] (subcutaneous administration, WT mice), “modestly increased wakefulness”; in series [2] it was “substantial levels of increased wakefulness”. In addition, the cataplexy entry in series [2] is given as “trends for decreasing cataplexy”. For the setting “crosslinker bond, 13-membered ring, triphosgene/DIEA, DCM, 8.5 mM, 25.0 °C”, “N-(6-methyl-5-oxo-9-oxa-6-aza-4(2,1)-piperidina-1(1,2),2(1,3)-dibenzena-cyclo-nonaphane-4^3-yl)methanesulfonamide_cis racemic” had a ring closure, yield after HPLC of 3%. As to “N-(5-oxo-6,9-dioxa-4(2,1)-pyrrolidina-1(1,2),2(1.3)-dibenzenacyclo-nonaphane-4^3-yl)ethanesulfonamide_cis racemic”, for the setting “crosslinker bond, 13-membered ring, CDI/DIEA, DMF, 10.0 mM, 80.0 °C”, the ring closure, yield after HPLC came out at 22%. In the case of “N-(1^3,1^5-difluoro-5-oxo-4(2,1)-pyrrolidina-1(1,2),2(1,3)-dibenzenacyclo-undecaphane-4^3-yl)ethanesulfonamide_cis racemic”, the ring closure, yield after HPLC (amide bond, 15-membered ring, HATU/DIEA, DCM, 11.7 mM, 25.0 °C) was found to be 8%. In the case of `COc1ccc(-c2cccc(C(=O)N(C)C)c2)cc1S(=O)(=O)Nc1cccc(NCCNC(=O)c2ccccc2N(C)C)c1` [YNT-185], the “sleep-onset REM periods and cataplexy-like events” value in series [1] (intraperitoneally or ICV, NT1 mouse model) was “decrease sleep-onset REM periods and cataplexy-like events”. In series [1] (intraperitoneally or ICV, wild type (WT) and orexin ligand-deficient mice), the wakefulness entry is given as “modestly increases wakefulness”.

The values above are taken from patent US20230331720A1, “MEDIUM- OR MACRO-CYCLIC BENZYL-SUBSTITUTED HETEROCYCLE DERIVATIVES AND THEIR USES AS OREXIN-2 RECEPTOR AGONISTS” (Orexia Therapeutics Limited, priority 2020, published 2023).
